Source: patent publication US9447015B1, “(S)-2′-vinyl-abscisic acid derivatives” (Valent BioSciences Corporation, priority 2015, dated 2016)
Entries after “also recorded” stand apart in the source; their conditions may differ.

How the values were obtained:
[1] = tested on: Arabidopsis thaliana seed germination; assay: Arabidopsis seed germination assay (promotion of germination in the presence of (S)-ABA); format: in vivo; parameters: key to Rating: Arabidopsis seed germination promotion activity: −: Seeds germinated at approximately the same time as those treated with 0.3 ppm of (S)-ABA alone (i.e., treatment with the 2′-vinyl-(S)-ABA derivative showed no measurable effect in this assay configuration).; +: Seeds germinated 1 to 4 days earlier than those treated with 0.3 ppm of (S)-ABA alone.; ++: Seeds germinated 5 to 7 days earlier than those treated with 0.3 ppm of (S)-ABA alone.; +++: Seeds germinated 8 to 10 days earlier than those treated with 0.3 ppm of (S)-ABA alone; details: for Rating: Arabidopsis seed germination promotion activity: 30 ppm compound in the presence of 0.3 ppm (S)-ABA, scored on day 14; for antagonist nature compared to (S)-ABA: seed germination assay, 30 ppm with 0.3 ppm (S)-ABA
Experimental: To determine whether the (S)-ABA derivatives of the present invention were effective antagonists, germination assays were performed with the model plant Arabidopsis thaliana. If the compounds are found to be antagonists, they may be useful to counter any undesirable side effects of (S)-ABA.
Arabidopsis seed was sterilized by shaking for five minutes in 200 proof ethanol, followed by shaking for five minutes in a 10% bleach solution. The seeds were then washed five times in sterile, distilled, de-ionized water and suspended in 0.1% phytoagar. The tubes containing the seeds were wrapped in aluminum foil and stratified at 4° C. for two days.
All compounds were tested at a concentration of 30 ppm in the presence or absence of 0.3 ppm (S)-ABA, in 24-well plates. For each compound, a 1000 ppm stock solution was prepared in distilled, deionized water containing 5% DMSO. The stock test solution (15 μL) was added to each well, plus or minus 1.5 μL of 100 ppm (S)-ABA in 5% DMSO. Appropriate amounts of distilled, de-ionized water was added to equalize volumes, and 450 μL of ½×Murashige and Skoog media containing 1.2% Bactoagar was then added to each well (final DMSO concentration was 0.5%). When the media solidified, ten to 15 sterile stratified Arabidopsis seeds were distributed into each well using a repeat pipettor. The plates were sealed with surgical tape and placed in a growth chamber running diurnal cycles of 12 hours of light at 24° C. and 12 hours of darkness at 19° C. The plates were scanned on days 3 through 14, and scored on day 14. The (S)-2′-vinyl-substituted ABA derivatives were scored on ability to promote germination in the presence of (S)-ABA. The results are summarized below in “Table 1: Arabidopsis seed germination promotion activity of 2′-vinyl-(S)-ABA derivatives.”

[2] = tested on: grapevines, Seedless 'Red Flame' (bud break and shoot development); assay: Field study for breaking grape vine dormancy; format: in vivo; details: for Percent of Buds Broken / Shoot Length/Spur (total length of all shoots present on spur): 1% solution applied to dormant grape spurs
Experimental: A small plot field study to test the effect of experimental compounds on release of, or breaking grape vine dormancy was conducted near Thermal, Calif. in January, 2016. The grapevines, Seedless ‘Red Flame’, had been pruned to 2-4 node spurs (shortened canes) prior to treatment. Aqueous treatment solutions were prepared with a test compound, an appropriate buffering agent, and a silicone-based nonionic surfactant at 0.25% (v/v). Each spur was thoroughly wetted with a 1% (w/v) solution, which was applied with a foam brush. Dormancy breaking was assessed periodically by examining bud break (initiation of growth) and subsequent shoot development. […] Both a control treatment (aqueous solution with surfactant) and a positive control treatment (the commercial standard for bud breaking, hydrogen cyanamide) were included in this study for comparison.

SMILES	Rating: Arabidopsis seed germination promotion activity [1]	also measured
CC(=C/C(=O)O)/C=C/[C@@]1(O)C(/C=C/c2ccc(Cl)cc2)=CC(=O)CC1(C)C [Compound 18]	+++ (Seeds germinated 8 to 10 days earlier than those treated with 0.3 ppm of (S)-ABA alone.)	antagonist nature compared to (S)-ABA [1]: antagonists of (S)-ABA
CC(=C/C(=O)O)/C=C/[C@@]1(O)C(/C=C/c2ccc(Cl)c(Cl)c2)=CC(=O)CC1(C)C [Compound 19]	++ (Seeds germinated 5 to 7 days earlier than those treated with 0.3 ppm of (S)-ABA alone.)	
CC(=C/C(=O)O)/C=C/[C@@]1(O)C(/C=C/c2cccc(F)c2)=CC(=O)CC1(C)C [Compound 20]	++ (Seeds germinated 5 to 7 days earlier than those treated with 0.3 ppm of (S)-ABA alone.)	
CC(=C/C(=O)O)/C=C/[C@@]1(O)C(/C=C/c2cccc(C(F)(F)F)c2)=CC(=O)CC1(C)C [Compound 21]	+ (Seeds germinated 1 to 4 days earlier than those treated with 0.3 ppm of (S)-ABA alone.)	
CC(=C/C(=O)O)/C=C/[C@@]1(O)C(/C=C/c2ccc(F)cc2F)=CC(=O)CC1(C)C [Compound 22]	++ (Seeds germinated 5 to 7 days earlier than those treated with 0.3 ppm of (S)-ABA alone.)	
CC(=C/C(=O)O)/C=C/[C@@]1(O)C(/C=C/c2ccc(F)c(F)c2)=CC(=O)CC1(C)C [Compound 23]	+++ (Seeds germinated 8 to 10 days earlier than those treated with 0.3 ppm of (S)-ABA alone.)	antagonist nature compared to (S)-ABA [1]: antagonists of (S)-ABA; also recorded: one of the most potent (S)-ABA antagonist; Percent of Buds Broken ([2]; 31 days post-treatment): 16.7%; Percent of Buds Broken ([2]; 48 days post-treatment): 76.7%; Shoot Length/Spur (total length of all shoots present on spur) ([2]; 48 days post-treatment): 22.2 cm; Shoot Length/Spur (total length of all shoots present on spur) ([2]; 48 days post-treatment, listed as compound 23): intermediate between the spurs treated with the control and hydrogen cyanamide; effect on bud break / breaking of woody plant dormancy ([2]; application to dormant grape spurs, 1% solution): significantly increased bud break
CC(=C/C(=O)O)/C=C/[C@@]1(O)C(/C=C/c2cc(F)cc(F)c2)=CC(=O)CC1(C)C [Compound 24]	++ (Seeds germinated 5 to 7 days earlier than those treated with 0.3 ppm of (S)-ABA alone.)	
CC(=C/C(=O)O)/C=C/[C@@]1(O)C(/C=C/c2ccccc2C(F)(F)F)=CC(=O)CC1(C)C [Compound 25]	++ (Seeds germinated 5 to 7 days earlier than those treated with 0.3 ppm of (S)-ABA alone.)	
CC(=C/C(=O)O)/C=C/[C@@]1(O)C(/C=C/c2ccc(C(F)(F)F)cc2)=CC(=O)CC1(C)C [Compound 26]	+++ (Seeds germinated 8 to 10 days earlier than those treated with 0.3 ppm of (S)-ABA alone.)	antagonist nature compared to (S)-ABA [1]: antagonists of (S)-ABA
CC(=C/C(=O)O)/C=C/[C@@]1(O)C(/C=C/c2cc(C(F)(F)F)ccc2F)=CC(=O)CC1(C)C [Compound 27]	++ (Seeds germinated 5 to 7 days earlier than those treated with 0.3 ppm of (S)-ABA alone.)	
COc1ccc(C(F)(F)F)cc1/C=C/C1=CC(=O)CC(C)(C)[C@@]1(O)/C=C/C(C)=C\C(=O)O [Compound 28]	++ (Seeds germinated 5 to 7 days earlier than those treated with 0.3 ppm of (S)-ABA alone.)	
CC(=C/C(=O)O)/C=C/[C@@]1(O)C(/C=C/c2cc(F)cc(C(F)(F)F)c2)=CC(=O)CC1(C)C [Compound 29]	++ (Seeds germinated 5 to 7 days earlier than those treated with 0.3 ppm of (S)-ABA alone.)	
CC(=C/C(=O)O)/C=C/[C@@]1(O)C(/C=C/c2ccc(C(F)(F)F)cc2F)=CC(=O)CC1(C)C [Compound 30]	++ (Seeds germinated 5 to 7 days earlier than those treated with 0.3 ppm of (S)-ABA alone.)	
CC(=C/C(=O)O)/C=C/[C@@]1(O)C(/C=C/c2cccc(C(F)(F)F)c2F)=CC(=O)CC1(C)C [Compound 31]	+++ (Seeds germinated 8 to 10 days earlier than those treated with 0.3 ppm of (S)-ABA alone.)	antagonist nature compared to (S)-ABA [1]: antagonists of (S)-ABA
CC(=C/C(=O)O)/C=C/[C@@]1(O)C(/C=C/c2cccc(C#N)c2)=CC(=O)CC1(C)C [Compound 32]	−	
CC(=C/C(=O)O)/C=C/[C@@]1(O)C(/C=C/c2ccco2)=CC(=O)CC1(C)C [Compound 33]	−	
CC(=C/C(=O)O)/C=C/[C@@]1(O)C(/C=C/c2nccs2)=CC(=O)CC1(C)C [Compound 34]	−	
CC(=C/C(=O)O)/C=C/[C@@]1(O)C(/C=C/c2cncs2)=CC(=O)CC1(C)C [Compound 35]	−	
CC(=C/C(=O)O)/C=C/[C@@]1(O)C(/C=C/c2ccccn2)=CC(=O)CC1(C)C [Compound 36]	−	
CC(=C/C(=O)O)/C=C/[C@@]1(O)C(/C=C/c2cccnc2)=CC(=O)CC1(C)C [Compound 37]	−	
CC(=C/C(=O)O)/C=C/[C@@]1(O)C(/C=C/c2ccncc2)=CC(=O)CC1(C)C [Compound 38]	−	
N#CN [Hydrogen cyanamide, hydrogen cyanamide, reference compound]		Percent of Buds Broken ([2]; 31 days post-treatment): 21.0%; Percent of Buds Broken ([2]; 48 days post-treatment): 58.8%; Shoot Length/Spur (total length of all shoots present on spur) ([2]; 48 days post-treatment): 25.2 cm
